# From patent US20110045092A1, “CASEIN […] ENCAPSULATING […] ACTIVE AGENTS AND USES THEREOF” (priority 2008, published 2011)
# Structures can show the parent of a compound that is named as a salt.
# Experiments:
# [1] = Visual appearance of drug solution with and without β-CN; assay type: physicochemical
# Text: In order to evaluate the visual appearance of the tested drug when encapsulated within the β-CN system as compared to the non-encapsulated drug solubilized at a similar concentration, in PBS and DMSO (i.e. without the addition of β-CN), photographs were taken of both solutions and their appearance was compared.
# β-CN [2] = molecular target: T1, β-CN (Bos taurus, UniProt P02666); test: Trp 143 fluorescence quenching of β-CN by drug; assay type: binding, bovine; conditions: for Kd: Trp 143 of β-CN quenched by drug, 1 mg/ml β-CN in PBS pH 7.0, emission 332 nm, read-out: Calculated Kd
# T1 construct: β-CN from bovine milk (C6905, purity 90%); purchased Sigma-Aldrich Israel Ltd. C6905; host or cells: bovine milk
# T1 sequence (P02666 16-224): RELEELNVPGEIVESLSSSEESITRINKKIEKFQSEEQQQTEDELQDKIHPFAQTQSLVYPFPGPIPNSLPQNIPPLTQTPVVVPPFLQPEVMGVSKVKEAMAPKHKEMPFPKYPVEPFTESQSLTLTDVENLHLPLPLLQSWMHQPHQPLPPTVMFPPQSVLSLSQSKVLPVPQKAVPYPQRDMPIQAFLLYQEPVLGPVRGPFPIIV
# Experimental: Tryptophan (Trp) Fluorescence:
# Trp 143 is located in the main hydrophobic domain of β-CN. Quenching of protein fluorescence due to energy transfer from this Trp residue to a bound ligand serves to determine the binding affinity.
# β-CN-drug interaction was studied by monitoring the changes in the Trp fluorescence emission of β-CN upon addition of the drug. Trp fluorescence was determined using an excitation at 287 nm and emission was detected at 332 nm, with slit widths of 1 nm, using the Fluorolog 3-22 spectrofluoreineter. Intrinsic fluorescence of the Trp residues of β-CN was measured before and after addition of different amounts of each drug ranging between drug: β-CN molar ratio of 0.2:1 to 12:1 at 1 mg/ml β-CN. Changes in Trp fluorescence were used to evaluate the binding of the drug to β-CN. The apparent dissociation constant and the number of drug molecules that are involved in binding of one β-CN molecule were calculated from plots of the fluorescence intensity at 332 nm, expressed as the percentage of the fluorescence of the drug-free β-CN vs. the added drug concentration. The data was analyzed using Matlab (MathWorks), by means of the following equations: […]
# where F is the fluorescence intensity at a given added ligand (drug) concentration; F0 the fluorescence intensity at the beginning of the titration; F1 the fluorescence at the end of the titration; [PF] the concentration of the free β-CN; [LF] the concentration of the free ligand, drug; [PL] the concentration of the β-CN-drug complex; Kd and Ka are the dissociation and association constants respectively (Christiaenset al. 2002 European Journal of Biochemistry 269 [12]:2918-2926).
# Emission spectra of pure 1 mg/ml β-CN vs. those of drug encapsulated in 1mg/ml at 4:1 drug: β-CN molar ratio, were collected at Trp excitation wavelength 287 nm, using the Fluorolog 3-22 spectrofluorometer.
# [3] = cited from earlier work
# β-CN [4] = molecular target: T1, β-CN; test: Mitoxantrone fluorescence quenching by β-CN; assay type: binding, bovine; conditions: 42 μM mitoxantrone
# Experimental: The β-CN-mitoxantrone interaction was further studied by monitoring the changes in the mitoxantrone fluorescence emission upon addition of β-CN. For this purpose a 3-D fluorescence spectra analysis of mitoxantrone was performed using the Fluorolog 3-22. Mitoxantrone fluorescence emission was measured using 609 nm and 675 nm excitation and emission, respectively, and slit widths of 1 nm. Intrinsic fluorescence of 42 μM mitoxantrone was measured before and after addition of different amounts of β-CN. The β-CN concentration range was 0.1-3.8 mg/ml. The apparent dissociation constant and the number of β-CN molecules bound per mitoxantrone molecule were calculated from plots of the fluorescence intensity at 675 nm expressed as the percentage of the fluorescence of the β-CN-free mitoxantrone vs. the added β-CN concentration. Data were analyzed as detailed herein above for Trp quenching.
# Zeta potential analysis = assay type: physicochemical; conditions: concentration range studied; PBS pH 7.0
# Experimental: Particle size distribution, mean Gaussian diameter, and zeta potential were determined by a combined dynamic light scattering (DLS) and zeta potential analyzer (NICOMP 380, Particle Sizing Systems (Agilent Technologies, Inc.), Santa Barbara, Calif., USA) at 25° C.
# Zeta potential was measured in PBS solutions without NaCl, under a 3 V/cm e-field, using phase analysis mode. The zeta potential was calculated from the electrophoretic mobility (EM) using the Smoluchowski model (which is a reasonable approximation given that the radius of the particles (a) was around 125 nm, and the ionic strength during the EM measurement was calculated to be about 50 mM, i.e. the Debye length (κ^−1) was around 1.4 nm, so that the product κ^−1a=92>>1).
# [5] = 504 μM drug in PBS with 4.55-5.6% DMSO
compound,measurement,setting,value
"CC(=O)O[C@H]1C(=O)[C@@]2(C)[C@H]([C@H](OC(=O)c3ccccc3)[C@]3(O)C[C@H](OC(=O)[C@H](O)[C@@H](NC(=O)c4ccccc4)c4ccccc4)C(C)=C1C3(C)C)[C@]1(OC(C)=O)CO[C@@H]1C[C@@H]2O [Paclitaxel, paclitaxel]","visual appearance, without β-CN",[1]; 84 μM drug in PBS and 0.8% DMSO,"turbid, unstable and aggregated system"
same,change of β-CN Trp-143 emission upon encapsulation,"β-CN [2]; 4:1 Paclitaxel:β-CN, 1 mg/ml β-CN, excitation 287 nm",decrease in emission intensity
vinblastine sulfate salt,Kd,"β-CN [2]; excitation 287 nm, model fit",50.9 µM
same,n (moles of quencher per moles of fluorophore),"β-CN [2]; drug molecules per β-CN molecule, Trp quenching, model fit",5.25±0.57
same,initial overall Trp emission intensity quenched,β-CN [2]; vinblastine:β-CN 0.2:1 to 10:1 at 1 mg/ml β-CN,About 80%
same,pKa,[3],5.5
"O=C1c2c(O)ccc(O)c2C(=O)c2c(NCCNCCO)ccc(NCCNCCO)c21 [mitoxantrone, Mitoxantrone dihydrochloride]","over-all mitoxantrone emission quenched by β-CN, up to % of its initial intensity",β-CN [4]; plateau at 0.7 mg/ml β-CN,up to 65%
same,Kd,"β-CN [4]; mitoxantrone fluorescence quenched by β-CN, β-CN 0.1-3.8 mg/ml, excitation 609 nm, emission 675 nm, model fit, read-out: Calculated Kd",0.726 µM
same,Kd,"β-CN [2]; excitation 287 nm, model fit",8.43 µM
same,"over-all Trp emission after quenching, of its initial intensity","β-CN [2]; plateau at mitoxantrone:β-CN 6:1, 1 mg/ml β-CN",20%
same,Log P,[3],higher than 2
"CCc1c2c(nc3ccc(OC(=O)N4CCC(N5CCCCC5)CC4)cc13)-c1cc3c(c(=O)n1C2)COC(=O)[C@]3(O)CC [irinotecan, irinotecan hydrochloride trihydrate]","visual appearance, without β-CN",[1]; [5],"turbid, unstable and aggregated solution"
same,pKa,[3],8.1
"CC(=O)O[C@@]12CO[C@@H]1C[C@H](O)[C@@]1(C)C(=O)[C@H](O)C3=C(C)[C@@H](OC(=O)[C@H](O)[C@@H](NC(=O)OC(C)(C)C)c4ccccc4)C[C@@](O)([C@@H](OC(=O)c4ccccc4)[C@H]21)C3(C)C [Docetaxel, Docetaxel trihydrate]","visual appearance, without β-CN",[1]; [5],"turbid, unstable and aggregated solution"
same,zeta potential of drug in PBS without β-CN,Zeta potential analysis,around −30 mV
